Assay in all cases: Postemergence herbicide evaluation, percent reduction in plant size vs untreated control, 21 days after treatment
Assay [1] relates to Conyza canadensis (L.) (ERICA). It counts as in vivo, Conyza canadensis (L.) (Horseweed). The following applies: Erigeron canadensis, post-emergence, 504 h, ERICA, postemergence, percent reduction vs untreated control, 21 days after treatment, read-out: Control/Injury; for pest or weed control at 140 g/ha: rate 140 g ae/ha; for pest or weed control at 280 g/ha: rate 280 g ae/ha. How it is done: (§1) Plants were grown in a soil media composed of 90% by volume Promix BX (Premier Tech Horticulture, Quakertown, PA) and 10% Profile Greens Grade (Profile Products LLC, Buffalo Grove, IL). Promix BX contains approximately 83% Sphagnum Peat Moss, 13% Perlite, 5% vermiculite, and proprietary amounts of limestone, starter fertilizer, and wetting agent. Profile Greens Grade is a sand-sized granule formed from calcining illite and montmorillonite clay. Several seeds of each species were planted in 10 cm square pots and top watered twice daily. Plant material was propagated in a warm greenhouse with temperature ranging from 25 to 28° C. and 50 to 60% relative humidity at the Corteva Global Headquarters (Indianapolis, Indiana, USA). Natural light was supplemented with 1000-watt metal halide overhead lamps with an average illumination of 500 μE m^−2 s^−1 photosynthetic active radiation for 16 consecutive hours each day. Plants were top-watered prior to herbicide application and sub-watered after herbicide application.
(§2) Appropriate amounts of test materials were weighed out into glass vials in their technical form to deliver either 140 or 280 g acid equivalent (ae)/ha. The samples were dissolved in 3 ml of Solvent 1. Solvent 1 is 97% acetone and 3% dimethyl sulfoxide and serves as a general-purpose solvent (GPS) for dissolving technical materials. […] The samples were then diluted to their final concentration using 17 ml of solvent 2 for a total of 20 ml of spray solution. Solvent 2 contains 41.58% GPS, 45.53% water, 11.88% isopropyl alcohol, 0.99% crop oil concentrate and 0.02% Trition X-155 surfactant. All percentages are listed on a volume basis. Dicamba diglycolamine was applied as a formulated herbicide, Clarity™ and diluted with solvent 2 to compare all materials in the same spray solution.
(§3) Herbicide applications were made to 3 to 4 replicates of each plant species at the 2 to 8 leaf stage, depending on the species. Treatments were applied with a research track-sprayer (Generation III Research Sprayer manufactured by DeVries Manufacturing in Hollandale, MN, USA) calibrated to deliver a spray volume of 187 L/ha. The track-sprayer was fitted with an 8003E nozzle from Spray Systems Company (North Avenue and Schmale Road, P.O. Box 7900, Wheaton, IL 60187), and used a spray pressure of 276 kPa pressure and a speed of 3.1 km/h. The nozzle height was 46 cm above the plant canopy. The experimental design used for the trials was a randomized complete block with 3 or 4 replications per treatment. After application, plants were placed on carts according to the randomization and returned to the greenhouse. Plants were sub-watered after treatment with Indianapolis city water or fertilized three times a week with a commercial fertilizer solution (Jack's Professional 15-5-15 4 Ca 2 Mg fertilizer (manufactured by JR PETERS INC., 6656 Grant Way, Allentown, PA 18106; www.jrpeters.com). Percent visual control assessments were made on a scale of 0 to 100% (where 0 was no control and 100 was complete plant death) at 7, 14, and 21 days after treatment.
In conformity with the methods outlined in Example 49, the effect of representative experimental compounds on the growth of Conyza canadensis (L.), (ERICA), common name, Horseweed, was determined at 2 different levels (respectively, 140 and 280 g acid equivalent (ae)/ha) of the experimental actives tested. Plants were treated with one of the compounds, a control plant was not treated. Twenty-one days after treatment, the plants were measured. The data is present as a percent reduction in plant size relative to the untreated control.

A further assay concerns Amaranthus rudis (AMATA). It counts as in vivo, Amaranthus rudis (tall water hemp). The following applies: Amaranthus tuberculatus, post-emergence, 504 h, AMATA, postemergence, read-out: Control/Injury; for pest or weed control at 280 g/ha: rate 280 g ae/ha; for pest or weed control at 140 g/ha: rate 140 g ae/ha. How it is done: as §1, §2, §3
In conformity with the methods outlined in Example 49, the effect of representative experimental compounds on the growth of Amaranthus rudis (AMATA), common name tall water hemp, was determined at 2 different levels (respectively, 140 and 280 g acid equivalent (ae)/ha) of the experimental actives tested. Plants were treated with one of the compounds, a control plant was not treated. Twenty-one days after treatment, the plants were measured. The data is present as a percent reduction in plant size relative to the untreated control.

Assay [2] concerns Amaranthus palmeri (AMAPA). In kind it is in vivo, Amaranthus palmeri (Palmer amaranth). The following applies: post-emergence, 504 h, R-AMAPA, postemergence, percent reduction vs untreated control, 21 days after treatment, read-out: Control/Injury; for pest or weed control at 140 g/ha: rate 140 g ae/ha; for pest or weed control at 280 g/ha: rate 280 g ae/ha. As to the method: as §1, §2, §3
In conformity with the methods outlined in Example 49, the effect of representative experimental compounds on the growth of Amaranthus palmeri (AMAPA), common name, Palmer amaranth, was determined at 2 different levels (respectively, 140 and 280 g acid equivalent (ae)/ha) of the experimental actives tested. Plants were treated with one of the compounds, a control plant was not treated. Twenty-one days after treatment, the plants were measured. The data is present as a percent reduction in plant size relative to the untreated control.

The test system of the next assay is Kochia scoparia (KCHSC). It counts as in vivo. The following applies: KCHSC, postemergence; for pest or weed control at 140 g/ha / pest or weed control at 280 g/ha: Bassia scoparia, post-emergence, 504 h, read-out: Control/Injury; for pest or weed control at 280 g/ha: rate 280 g ae/ha. As to the method:
as §1, §2, §3
In conformity with the methods outlined in Example 49, the effect of representative experimental compounds on the growth of Kochia scoparia (KCHSC) was determined at 2 different levels (respectively, 140 and 280 g acid equivalent (ae)/ha) of the experimental actives tested. Plants were treated with one of the compounds, a control plant was not treated. Twenty-one days after treatment, the plants were measured. The data is present as a percent reduction in plant size relative to the untreated control.

The subject of assay [3] is Ambrosia artemisiifolia (AMBEL). It counts as in vivo, Ambrosia artemisiifolia (common ragweed). The following applies: post-emergence, 504 h, AMBEL, postemergence, read-out: Control/Injury; for pest or weed control at 280 g/ha: rate 280 g ae/ha; for pest or weed control at 140 g/ha: rate 140 g ae/ha. How it is done: as §1, §2, §3
In conformity with the methods outlined in Example 49, the effect of representative experimental compounds on the growth of Ambrosia artemisiifolia (AMBEL), (common ragweed), was determined at 2 different levels (respectively, 140 and 280 g acid equivalent (ae)/ha) of the experimental actives tested. Plants were treated with one of the compounds, a control plant was not treated. Twenty-one days after treatment, the plants were measured. The data is present as a percent reduction in plant size relative to the untreated control.

As to `COc1c(Cl)ccc(Cl)c1C(=O)O/N=C(\N)c1cccc(Cl)c1` [Compound A-12], in assay [1], the pest or weed control at 140 g/ha was 72% and the pest or weed control at 280 g/ha was 87%.

Turning to `COc1c(Cl)ccc(Cl)c1C(=O)O/N=C(\N)c1cc(Cl)cc(Cl)c1` [Compound A-16], in assay [1], the pest or weed control at 140 g/ha was determined as 68% and the pest or weed control at 280 g/ha came out at 78%.

As to `COc1c(Cl)ccc(Cl)c1C(=O)O/N=C(\N)c1ccc2[nH]ccc2c1` [Compound A-28], in assay [1], the pest or weed control at 140 g/ha was found to be 70% and the pest or weed control at 280 g/ha is 83%.

Take `COc1c(Cl)ccc(Cl)c1C(=O)O/N=C(\N)c1ccc2[nH]cnc2c1` [Compound A-29]: in assay [1], the pest or weed control at 140 g/ha was 40% and the pest or weed control at 280 g/ha amounted to 40%.

`COc1c(Cl)ccc(Cl)c1C(=O)O/N=C(\N)c1cccc2ccccc12` [Compound A-30]: in assay [1], the pest or weed control at 140 g/ha turned out to be 50% and the pest or weed control at 280 g/ha is 22%.

As for `COc1c(Cl)ccc(Cl)c1C(=O)OCc1ccccc1` [Compound A-44], the pest or weed control at 280 g/ha turned out to be 60% with Amaranthus rudis (AMATA), 85% in assay [2], 90% in the assay with Kochia scoparia (KCHSC) and 80% in assay [3]. For the same compound, the results for the pest or weed control at 140 g/ha (in assay [2]; in the assay with Kochia scoparia (KCHSC) (rate 140 g ae/ha)) were 80% and 60%, respectively. In the assay on Kochia scoparia (KCHSC) (rate 140 g ae/ha), this compound gave a Control/Injury of 60.

In the case of `COc1c(Cl)ccc(Cl)c1C(=O)O/N=C(\C)c1cccnc1` [Compound A-47], the pest or weed control at 280 g/ha in the assay on Amaranthus rudis (AMATA) is 75%; in assay [2] it was 95%; with Kochia scoparia (KCHSC) it was 100%; in assay [3] it was 100%. The values for the pest or weed control at 140 g/ha (in assay [2]; in the assay with Kochia scoparia (KCHSC) (rate 140 g ae/ha); in assay [3]) were 90%, 98% and 85%, respectively.

Consider `COc1c(Cl)ccc(Cl)c1C(=O)O/N=C/c1ccc(/C=N/OC(=O)c2c(Cl)ccc(Cl)c2OC)cc1` [Compound A-57], for which the pest or weed control at 140 g/ha in the assay with Amaranthus rudis (AMATA) was 95%; in the assay on Kochia scoparia (KCHSC) (rate 140 g ae/ha), 92%; in assay [3], 95%. Further, the pest or weed control at 280 g/ha in assay [2] was found to be 100%; in the assay on Kochia scoparia (KCHSC) it was 100%; in assay [3], 98%.

For `COc1c(Cl)ccc(Cl)c1C(=O)Nc1ccncc1` [Compound A-61], the pest or weed control at 140 g/ha with Amaranthus rudis (AMATA) is 85%; in assay [2], 85%; in the assay with Kochia scoparia (KCHSC) (rate 140 g ae/ha) it was 98%; in assay [3] it was 99%. The pest or weed control at 280 g/ha with Amaranthus rudis (AMATA) came to 90%; in assay [2], 100%; in the assay with Kochia scoparia (KCHSC) it was 99%; in assay [3], 98%.

Consider `CCN(CC)OC(=O)c1c(Cl)ccc(Cl)c1OC` [Compound A-64], for which the pest or weed control at 140 g/ha with Amaranthus rudis (AMATA) is 3%; in assay [2], 3%; in the assay with Kochia scoparia (KCHSC) (rate 140 g ae/ha) it was 0%; in assay [3] it was 5%; in assay [1] it was 3%. Moreover, the pest or weed control at 280 g/ha with Amaranthus rudis (AMATA) worked out at 2%; in assay [2] it was 20%; with Kochia scoparia (KCHSC), 3%; in assay [3], 12%; in assay [1], 10%.

`COc1c(Cl)ccc(Cl)c1C(=O)N1CCOCC1` [Compound A-65]: the pest or weed control at 140 g/ha in the assay on Amaranthus rudis (AMATA) stood at 15%; in assay [2] it was 33%; in the assay with Kochia scoparia (KCHSC) (rate 140 g ae/ha) it was 28%; in assay [3], 40%; in assay [1] it was 8%. In addition, the pest or weed control at 280 g/ha with Amaranthus rudis (AMATA) worked out at 23%; in assay [2], 33%; in the assay on Kochia scoparia (KCHSC), 37%; in assay [3] it was 55%; in assay [1], 28%.

On to `COc1c(Cl)ccc(Cl)c1C(=O)ONC(N)=O` [Compound A-67], for which the pest or weed control at 140 g/ha in the assay with Amaranthus rudis (AMATA) was found to be 0%; in assay [2], 13%; in the assay with Kochia scoparia (KCHSC) (rate 140 g ae/ha) it was 3%; in assay [3], 3%; in assay [1], 2%. The pest or weed control at 280 g/ha with Amaranthus rudis (AMATA) was 2%; in assay [2], 10%; in the assay with Kochia scoparia (KCHSC), 2%; in assay [3], 3%; in assay [1] it was 3%.

Regarding `COc1c(Cl)ccc(Cl)c1C(=O)ONC(C)=O` [Compound A-68], the pest or weed control at 140 g/ha in the assay with Amaranthus rudis (AMATA) amounted to 23%; in assay [2] it was 42%; in the assay with Kochia scoparia (KCHSC) (rate 140 g ae/ha), 58%; in assay [3], 55%; in assay [1], 8%. The pest or weed control at 280 g/ha is 40% in the assay with Amaranthus rudis (AMATA); 52% in assay [2]; 82% with Kochia scoparia (KCHSC); 58% in assay [3]; 23% in assay [1].

With `COc1c(Cl)ccc(Cl)c1C(=O)C(Cl)(Cl)Cl` [Compound A-96], in assay [1], the pest or weed control at 140 g/ha is 0% and the pest or weed control at 280 g/ha stood at 0%.

For the origin of these results see patent US20240122179A1, “AUXINIC HERBICIDES AND METHODS OF USE THEREOF” (CORTEVA AGRISCIENCE LLC, priority 2021, published 2024).
